Experimental data reported in patent publication US12678412B2, “Substituted tolans for the modulation of microbial colonization” (BioMendics, LLC, priority 2017, dated 2026).

Tests used:
Type in all cases: cell-based
wild type E. Coli = assay: Control of microbial growth, wild type E. coli
S. typhimurium TA100 = assay: Dose range finding colony forming assay, strain TA100 with metabolic activation
Procedure: (§1) A series of dose range finding assays were performed with five bacterial strains, S. typhimurium TA97a, TA98, TA100, TA1535, and E. coli WP2 uvrA pKM101, with and without metabolic activation at three plates per dose. The following doses, along with positive and negative controls, were tested: 5000, 2500, 1250, 500, 250, 125, 50, 20, 10, 5, 2, 1, and 0.2 μg/plate. The plates were evaluated for toxicity (a decrease in plate counts with increasing dose and/or a visible thinning of the background lawn) and for precipitation of the test article. Metabolic activation was included in some samples by adding phenobarbital/benzoflavone-induced rat liver S9 fractions with cofactors (S9 mix). Prior to use, freshly thawed aliquots of rat liver S9 were mixed with a sterile cofactor mix. The S9 mix contains a 10% liver S9 concentration and was refrigerated or stored on ice until used. When testing with metabolic activation, the S9 mix was used in the assay tube in place of phosphate buffer.
(§2) Dosing formulations were prepared to deliver all doses in a constant volume of 0.1 mL. The highest dose was prepared from test article weighed to the nearest 0.1 mg and the remaining formulations were prepared as serial dilutions from the high dose stock formulation. Using a permanent marking pen or computer printed labels, assay plates were labeled with the project and study numbers and the date. Assay plates and tubes were labeled with a unique identifier, which was used to match the assay tubes with the properly identified minimal glucose agar plate.
(§3) The pre-incubation method was used to perform the assay. The assay mix consisted of 0.1 mL of the test article formulation or control article, 0.5 mL S9 mix or phosphate buffer, and 0.1 mL of bacterial culture. Assay tubes were incubated at 37±1° C. with gentle agitation for 20±1 minutes, then 2.0-2.5 mL top agar was added to the assay mix and the top agar/assay mix poured onto appropriately labeled minimal glucose agar plates. Once the top agar hardened, the plates were inverted and incubated at 37±1° C. for 48±2 hours. Plates were counted with the Sorcerer (v. 2.2)/Ames Study Manager (v. 1.2.4) system from Perceptive Instruments (Suffolk, UK). With this system, plate counts are automatically transferred from the plate imager (Sorcerer) to a Study Manager spreadsheet, and the data are stored in a secure manner on an Oracle database. Some plates were hand counted, e.g., if sample precipitate interferes with automatic counting or toxicity results in the formation of microcolonies, in which case, counts for these plates were entered into the spreadsheet manually. Plates were scored also with the extent of colonization by a post fix code.

[1] = test system: Pseudomonas aeruginosa ATCC 27312; assay: Colony forming assay, spread plate, Pseudomonas aeruginosa; details: for Reduction of PA counts: compared to vehicle, Tobramycin and untreated control
Procedure: A fresh culture of pathogenic isolate was used in these examples. The bacterial strains used were Methicillin Resistant Staphylococcus aureus (MRSA USA 300), Pseudomonas aeruginosa ATCC 27312, and Candida albicans ATCC 64550.
FIG. 5 illustrates the spread plate method used in these examples. In sum, agar plates were made, bacteria were diluted to 10^6 or 10^8 CFU/mL, bacteria and drug were mixed together and then plated. Glass spreading beads were used because they give a better bacterial spread. Plates were incubated for 24 hrs then the colonies that formed were counted.
Proliferating cultures of Pseudomonas aeruginosa (PA, ATCC 27312) and Candida albicans (CA, ATCC 64550) were used in a colony forming assay. Freeze-dried bacteria cultures were recovered by swabbing a 3-cm diameter growth area and resuspending it to obtain a final inoculum suspension of approximately 10^6 CFU/mL. The concentration was confirmed using historical optical density measurements. Before bacteria challenge, the tolan compound BM3103 was suspended in 100% diethylene glycol monoethyl ether (Formulation C) with vehicle control consisting solely of the diethylene glycol monoethyl ether. Before plating, 100 μL of the final inoculum (10^6 CFU/mL) was mixed with 200 μL LB broth and 200 μL of BM3103 doses, vehicle, positive control (Tobramycin, 12 μg/mL for PA and 160 μg/mL for CA), or untreated control (phosphate buffered saline). The final plating concentration for the high, middle, and low BM3103 doses were 0.5%, 0.25%, and 0.1% w/v (22 mM, 11 mM, and 4 mM), respectively. The inoculum was plated on agar with centrimide and nalidixate (CN) supplement for PA (though sodium nalidixate or nalixic acid could also be used), and on Tryptic Soy Broth plates for CA experiments, at 37° C. for 24 h. Plates were photographed and counted. The experiment was done in triplicate.
Colony counts for each treatment were tabulated and the Log of the colony forming units/mL (Log CFU/mL) were determined. The mean and standard deviation of the Log CFU/mL were calculated for each treatment. […] The medium and low dose groups reduced PA counts when compared to the vehicle, Tobramycin, and untreated control groups by about 5-fold.

S. typhimurium TA98 = assay: Dose range finding colony forming assay, strain TA98 with metabolic activation
Procedure: as §1, §2, §3

## COc1ccc(C#Cc2ccc(O)cc2)cc1 [BM3103, 4-hydroxy-4′-methoxytolan]
Wild type E. Coli
  Effectiveness against wild type E. Coli: effective
S. typhimurium TA100; 0.2 μg/plate
  Colony forming units/plate: 78 colony forming units/plate
  Individual colony counts: 78
S. typhimurium TA100; 1 μg/plate
  Colony forming units/plate: 56.0 colony forming units/plate
  Individual colony counts: 56
S. typhimurium TA100; 2 μg/plate
  Colony forming units/plate: 36.0 colony forming units/plate
  Individual colony counts: 360
S. typhimurium TA100; 5 μg/plate
  Colony forming units/plate: 74.0 colony forming units/plate
  Individual colony counts: 74
S. typhimurium TA100; 10 μg/plate
  Colony forming units/plate: 38.0 colony forming units/plate
  Individual colony counts: 38
  Plate postfix code (individual colony counts): S T
S. typhimurium TA100; 20 μg/plate
  Colony forming units/plate: 54.0 colony forming units/plate
  Individual colony counts: 54
S. typhimurium TA100; 50 μg/plate
  Colony forming units/plate: 0.0 colony forming units/plate
  Individual colony counts: 0
S. typhimurium TA100; 125 μg/plate
  Colony forming units/plate: 0.0 colony forming units/plate
  Individual colony counts: 0
S. typhimurium TA100; 250 μg/plate
  Colony forming units/plate: 0.0 colony forming units/plate
  Individual colony counts: 0
S. typhimurium TA100; 500 μg/plate
  Colony forming units/plate: 0.0 colony forming units/plate
  Individual colony counts: 0
S. typhimurium TA100; 1250 μg/plate
  Colony forming units/plate: 0.0 colony forming units/plate
  Individual colony counts: 0
  Plate postfix code (individual colony counts): A P
S. typhimurium TA100; 2500 μg/plate
  Colony forming units/plate: 0.0 colony forming units/plate
  Individual colony counts: 0
  Plate postfix code (individual colony counts): A P
S. typhimurium TA100; 5000 μg/plate
  Colony forming units/plate: 0.0 colony forming units/plate
  Individual colony counts: 0
  Plate postfix code (individual colony counts): A P
[1]; 0.1-0.5% w/v, Formulation C
  Dose dependence of effect on PA bacterial counts: dose dependent inhibitory effect
[1]; high dose 0.5% w/v, 22 mM, diethylene glycol monoethyl ether (Formulation C), 24 h, FIG. 7
  PA bacterial counts: no bacteria colonies
[1]; low dose 0.1% w/v, 4 mM, Formulation C, 24 h
  Reduction of PA counts: about 5 fold
[1]; medium dose 0.25% w/v, 11 mM, Formulation C, 24 h
  Reduction of PA counts: about 5 fold
S. typhimurium TA98; 1 μg/plate
  Colony forming units/plate: 8.0 colony forming units/plate
  Individual colony counts: 8
S. typhimurium TA98; 2 μg/plate
  Colony forming units/plate: 18.0 colony forming units/plate
  Individual colony counts: 18
S. typhimurium TA98; 5 μg/plate
  Colony forming units/plate: 16.0 colony forming units/plate
  Individual colony counts: 16
S. typhimurium TA98; 10 μg/plate
  Colony forming units/plate: 16.0 colony forming units/plate
  Individual colony counts: 16
S. typhimurium TA98; 20 μg/plate
  Colony forming units/plate: 0.0 colony forming units/plate
  Individual colony counts: 0
S. typhimurium TA98; 50 μg/plate
  Colony forming units/plate: 0.0 colony forming units/plate
  Individual colony counts: 0
S. typhimurium TA98; 125 μg/plate
  Colony forming units/plate: 0.0 colony forming units/plate
  Individual colony counts: 0
S. typhimurium TA98; 250 μg/plate
  Colony forming units/plate: 0.0 colony forming units/plate
  Individual colony counts: 0
S. typhimurium TA98; 500 μg/plate
  Colony forming units/plate: 0.0 colony forming units/plate
  Individual colony counts: 0
  Plate postfix code (individual colony counts): A P
S. typhimurium TA98; 1250 μg/plate
  Colony forming units/plate: 0.0 colony forming units/plate
  Individual colony counts: 0
  Plate postfix code (individual colony counts): A P
S. typhimurium TA98; 2500 μg/plate
  Colony forming units/plate: 0.0 colony forming units/plate
  Individual colony counts: 0
  Plate postfix code (individual colony counts): A P
S. typhimurium TA98; 5000 μg/plate
  Colony forming units/plate: 0.0 colony forming units/plate
  Individual colony counts: 0
  Plate postfix code (individual colony counts): A P
